Results on 17 compounds are retold here after patent US20240360114A1 (SIRONAX LTD., priority 2021, published 2024).

The first assay concerns HT-1080 cells. The experiment in a line: HT-1080 cell viability assay (ferroptosis induced by RSL3, Cell Titer-Glo). It is filed as cell-based. The note with it: Homo sapiens, HT-1080, 20 h, ferroptosis inducer RSL3, 20 hours, ferroptosis inhibitory activity, Table 2. The method, boiled down: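 Cells seeded overnight, then co-treated with RSL3 and compound (3-fold, 10-point dilution, top 1.1 μM) for 20 hours. Viability by CellTiter-Glo luminescence, normalized to untreated controls; EC50 from sigmoidal non-linear regression.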
As for `CC1(C)CCC(c2ccc(NC3CC(CN)C3)cc2)CC1` (centres unmarked) [Compound 84, N-(3-(aminomethyl)cyclobutyl)-4-(4,4-dimethylcyclohexyl)aniline], the concentration giving a half-maximal response (EC50) lay in the range of 0.1 to 100 nM.

`CC1CCN(c2ncc(NC3C4CC5CC3CC(C(N)=O)(C5)C4)cn2)CC1` (centres unmarked) [Compound 405, 4-((2-(4-methylpiperidin-1-yl)pyrimidin-5-yl)amino)adamantane-1-carboxamide]: the EC50 is 0.1 to 100 nM.

As to `CCC(C)(C)c1ccc(NC2CCC(O)CC2)cc1` (centres unmarked) [Compound 298, 4-((4-(tert-pentyl)phenyl)amino)cyclohexan-1-ol], the EC50 lay in the range of 100 to 1000 nM.

Compound `CC(C)(C)c1ccc(NC2C3CC4CC2CC(N)(C4)C3)cc1` (centres unmarked) [Compound 95, N^4-(4-(tert-butyl)phenyl)adamantane-1,4-diamine] showed an EC50 of 0.1 to 100 nM. For the compound `Cc1cc(N2CCC(C(F)(F)F)CC2)ccc1NC1CCC(N)CC1` (centres unmarked) [Compound 69, N1-(2-methyl-4-(4-(trifluoromethyl)piperidin-1-yl)phenyl)cyclohexane-1,4-diamine], the concentration for a half-maximal effect (EC50) was in the range of 0.1 to 100 nM.

In the case of `CN(C)C1CCC(Nc2ccc(C(C)(C)C)cc2)CC1` (single isomer, unassigned) [Compound 193A, N1-(4-(tert-butyl)phenyl)-N4,N4-dimethylcyclohexane-1,4-diamine], the EC50 was 100 to 1000 nM. `CC1CN(c2ccc(NC3CCC(N)CC3)cc2)CC(C)O1` (centres unmarked) [Compound 450, N1-(4-(2,6-dimethylmorpholino)phenyl)cyclohexane-1,4-diamine] returned a concentration for a half-maximal effect (EC50) of 100 to 1000 nM.

As to `CC1CC(Nc2ccc(C(C)(C)C)cc2)CCC1O` (centres unmarked) [Compound 233A], the EC50 is 100 to 1000 nM.

`CC1(C)CCC(c2ccc(NC3CCC(CN)C3)cc2)CC1` (centres unmarked) [Compound 83, N-(3-(aminomethyl)cyclopentyl)-4-(4,4-dimethylcyclohexyl)aniline] yielded an EC50 of 0.1 to 100 nM. Still for that read-out and setting: for `CC(C)C1CCN(c2ncc(NC3CC4(CC(NCCF)C4)C3)cn2)CC1` (centres unmarked) [Compound 412, N2-(2-fluoroethyl)-N6-(2-(4-isopropylpiperidin-1-yl)pyrimidin-5-yl)spiro[3.3]heptane-2,6-diamine] the value was 0.1 to 100 nM; for `CC(C)Nc1ccc(N2CCC(C(F)(F)F)CC2)cc1` [Compound 7, N-isopropyl-4-(4-(trifluoromethyl)piperidin-1-yl)aniline], 0.1 to 100 nM. Still for that read-out and setting: with `CC1(C)CCC(c2ccc(NC3CCC(N)C3)cc2)CC1` (single isomer, unassigned) [Compound 121A, N1-(4-(4,4-dimethylcyclohexyl)phenyl)cyclopentane-1,3-diamine] the figure was 0.1 to 100 nM. Same read-out and setting: with `CC(C)C1CCN(c2ncc(NC3CCC(CN)C3)cn2)CC1` (centres unmarked) [Compound 48, N-(3-(aminomethyl)cyclopentyl)-2-(4-isopropylpiperidin-1-yl)pyrimidin-5-amine] the figure was 0.1 to 100 nM.

`CCC1CCN(c2ncc(NC3CCC(N)CC3)cn2)CC1` (centres unmarked) [Compound 43, N1-(2-(4-ethylpiperidin-1-yl)pyrimidin-5-yl)cyclohexane-1,4-diamine] returned an EC50 of 0.1 to 100 nM. Same read-out and setting: with `NC1CCC(Nc2ccc(C3CCC(C(F)(F)F)CC3)cc2)CC1` (centres unmarked) [Compound 280, N1-(4-(4-(trifluoromethyl)cyclohexyl)phenyl)cyclohexane-1,4-diamine] the figure was 0.1 to 100 nM.

The assay is the same for the next values; noted with them: Homo sapiens, HT-1080, 20 h, ferroptosis inducer RSL3, 20 hours, ferroptosis inhibitory activity, Table 3.
`Cc1nc(N2CC(C)N(C(=O)C(F)(F)F)C(C)C2)ccc1NC1CC2CCC(C1)N2` (centres unmarked) [Compound 642, 1-(4-(5-((8-azabicyclo[3.2.1]octan-3-yl)amino)-6-methylpyridin-2-yl)-2,6-dimethylpiperazin-1-yl)-2,2,2-trifluoroethan-1-one] showed an EC50 of 0.1 to 100 nM.

Consider `NC1CC2(C1)CC(Nc1ccc3cc(N4CCC(O)(C(F)(F)F)CC4)ccc3c1)C2` (centres unmarked) [Compound 620, 1-(6-((6-aminospiro[3.3]heptan-2-yl)amino)naphthalen-2-yl)-4-(trifluoromethyl)piperidin-4-ol], for which the 50% effective concentration (EC50) fell in the range of 0.1 to 100 nM.
